Data from US20230066946A1, “1,5-DIPHENYLPYRAZOLYL-3-OXYALKYL ACIDS AND 1-PHENYL-5-THIENYLPYRAZOLYL-3-OXYALKYL ACIDS AND THE USE THEREOF FOR CONTROL OF UNWANTED PLANT GROWTH” (Bayer Aktiengesellschaft, priority 2019, published 2023).
Values joined by “and” are separate entries in the source; they are usually repeats but may differ in a detail not shown here. Identical values can stand only once.

Columns and labels:
ALOMY [1] = assay: Post-emergence herbicidal action against ALOMY; format: in vivo, Alopecurus myosuroides; conditions: 1280 g/ha, post-emergence at one-leaf stage, rated visually after about 3 weeks vs untreated controls
Procedure, shortened: (§1)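 Herbicidal effect, rated visually about 3 weeks after treatment as percent versus untreated controls. Test plants in sandy loam had received a foliar application at the one-leaf stage of 1280 or 320 g/ha, formulated as WP or EC with 0.5% additive in 600 litres per hectare water.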

AMARE [2] = assay: Post-emergence herbicidal action against AMARE; format: in vivo, Amaranthus retroflexus; conditions: visual rating about 3 weeks after treatment
Procedure, shortened: as §1

AVEFA [3] = assay: Pre-emergence herbicidal action against AVEFA; format: in vivo, Avena fatua; conditions: scored visually after about 3 weeks vs untreated controls, 100% = plants have died, 0% = like control plants
Text: (§2) Seeds of mono- and dicotyledonous weed plants are placed in plastic pots in sandy loam soil (doubly sown with one species each of mono- or dicotyledonous weed plants per pot) and covered with soil. The compounds of the invention, formulated in the form of wettable powders (WP) or as emulsion concentrates (EC), are then applied onto the surface of the covering soil as aqueous suspension or emulsion with addition of 0.5% additive at a water application rate equivalent to 600 litres per hectare. After the treatment, the pots are placed in a greenhouse and kept under good growth conditions for the trial plants. After about 3 weeks, the effect of the preparations is scored visually in comparison with untreated controls as percentages. For example, 100% activity=the plants have died, 0% activity=like control plants. [table] Tables 4.1-4.15 below show the effects of selected compounds of the general formula (I) according to Tables 1 to 3 on various harmful plants at an application rate corresponding to 1280 or 320 g/ha, which have been obtained by the aforementioned experimental method.

VIOTR = assay: Pre-emergence herbicidal action against VIOTR; format: in vivo, Viola tricolor; conditions: 1280 g/ha, scored visually after about 3 weeks vs untreated controls
Procedure, shortened: (§3)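 Pre-emergence, sandy loam, pots doubly sown. WP/EC formulations + 0.5% additive, 600 L/ha water, sprayed on soil surface; 1280 or 320 g/ha. Greenhouse ~3 wk; visual % effect vs untreated.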

ALOMY [4] = assay: Pre-emergence herbicidal action against ALOMY; format: in vivo, Alopecurus myosuroides; conditions: scored visually after about 3 weeks vs untreated controls, 100% = plants have died, 0% = like control plants
Procedure, shortened: as §3

HORMU = assay: Post-emergence herbicidal action against HORMU; format: in vivo, Hordeum murinum; conditions: 320 g/ha, visual rating about 3 weeks after treatment
Procedure, shortened: as §1

MATIN [5] = assay: Post-emergence herbicidal action against MATIN; format: in vivo, Matricaria inodora; conditions: visual rating about 3 weeks after treatment
Procedure, shortened: as §1

AVEFA [6] = assay: Post-emergence herbicidal action against AVEFA; format: in vivo, Avena fatua; conditions: 1280 g/ha, post-emergence at one-leaf stage, rated visually after about 3 weeks vs untreated controls
Experimental: (§4) [table] Seeds of mono- and dicotyledonous weed plants are placed in plastic pots in sandy loam soil (twin sowing with one species each of mono- or dicotyledonous weed plants per pot), covered with soil and cultivated in a greenhouse under controlled growth conditions. 2 to 3 weeks after sowing, the test plants are treated at the one-leaf stage. The compounds of the invention, formulated in the form of wettable powders (WP) or as emulsion concentrates (EC), are applied to the green parts of the plants as aqueous suspension or emulsion with addition of 0.5% additive at a water application rate equivalent to 600 litres per hectare. After the test plants have been kept in the greenhouse under optimum growth conditions for about 3 weeks, the activity of the preparations is rated visually in comparison to untreated controls. For example, 100% activity=the plants have died, 0% activity=like control plants. Tables 5.1-5.16 below show the effects of selected compounds of the general formula (I) according to Tables 1 to 3 on various harmful plants at an application rate corresponding to 1280 or 320 g/ha, which have been obtained by the aforementioned experimental method.

PHBPU [7] = assay: Pre-emergence herbicidal action against PHBPU; format: in vivo, Pharbitis purpurea; conditions: 1280 g/ha, scored visually after about 3 weeks vs untreated controls
Text: as §2

LOLRI = assay: Post-emergence herbicidal action against LOLRI; format: in vivo, Lolium rigidum; conditions: 1280 g/ha, post-emergence at one-leaf stage, rated visually after about 3 weeks vs untreated controls
Experimental: as §4

VERPE [8] = assay: Pre-emergence herbicidal action against VERPE; format: in vivo, Veronica persica; conditions: 320 g/ha, scored visually after about 3 weeks vs untreated controls
Procedure, shortened: as §3

VERPE [9] = assay: Post-emergence herbicidal action against VERPE; format: in vivo, Veronica persica; conditions: 320 g/ha, visual rating about 3 weeks after treatment
Procedure, shortened: as §1

AMARE [10] = assay: Pre-emergence herbicidal action against AMARE; format: in vivo, Amaranthus retroflexus; conditions: scored visually after about 3 weeks vs untreated controls
Procedure, shortened: as §3

harmful plants = assay: Pre-emergence herbicidal action, summary of Tables 4.1-4.15; format: in vivo; conditions: result in words
Procedure, shortened: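 Percent herbicidal action (100% = plants dead, 0% = like controls) was assessed visually about 3 weeks after treatment. Application rates of 1280 or 320 g/ha were applied to the covering soil of freshly sown sandy-loam pots, in 600 l/ha water with 0.5% additive, before emergence.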

POLCO [11] = assay: Pre-emergence herbicidal action against POLCO; format: in vivo, Polygonum convolvulus; conditions: 320 g/ha, scored visually after about 3 weeks vs untreated controls
Procedure, shortened: as §3

STEME [12] = assay: Pre-emergence herbicidal action against STEME; format: in vivo, Stellaria media; conditions: scored visually after about 3 weeks vs untreated controls
Procedure, shortened: as §3

MATIN [13] = assay: Pre-emergence herbicidal action against MATIN; format: in vivo, Matricaria inodora; conditions: 1280 g/ha, scored visually after about 3 weeks vs untreated controls
Procedure, shortened: as §3

ECHCG = assay: Pre-emergence herbicidal action against ECHCG; format: in vivo, Echinochloa crus-galli; conditions: scored visually after about 3 weeks vs untreated controls, 100% = plants have died, 0% = like control plants
Procedure, shortened: as §3

PHBPU [14] = assay: Post-emergence herbicidal action against PHBPU; format: in vivo, Pharbitis purpurea; conditions: 320 g/ha, visual rating about 3 weeks after treatment
Procedure, shortened: as §1

POLCO [15] = assay: Post-emergence herbicidal action against POLCO; format: in vivo, Polygonum convolvulus; conditions: 320 g/ha, visual rating about 3 weeks after treatment
Procedure, shortened: as §1

STEME [16] = assay: Post-emergence herbicidal action against STEME; format: in vivo, Stellaria media; conditions: visual rating about 3 weeks after treatment
Procedure, shortened: as §1

SETVI = assay: Pre-emergence herbicidal action against SETVI; format: in vivo, Setaria viridis; conditions: 1280 g/ha, scored visually after about 3 weeks vs untreated controls
Procedure, shortened: as §3

## O=C(O)COc1nn(-c2ccccc2)c(-c2ccc(F)cc2)c1Br [I-057]
ALOMY [1]
  Post-emergence action against ALOMY in %: 90%
AMARE [2]; 320 g/ha
  Post-emergence action against AMARE in %: 80%
AMARE [2]; 1280 g/ha
  Post-emergence action against AMARE in %: 80%
AVEFA [3]
  Pre-emergence action at 1280 g/ha against AVEFA in %: 80%
VIOTR
  Pre-emergence action against VIOTR in %: 100%
ALOMY [4]
  Pre-emergence action at 1280 g/ha against ALOMY in %: 90%
HORMU
  Post-emergence action against HORMU in %: 80%
MATIN [5]; 320 g/ha
  Post-emergence action against MATIN in %: 80%
MATIN [5]; 1280 g/ha
  Post-emergence action against MATIN in %: 90%
AVEFA [6]
  Post-emergence action against AVEFA in %: 90%
PHBPU [7]
  Pre-emergence action against PHBPU in %: 90%
LOLRI
  Post-emergence action against LOLRI in %: 80%
VERPE [8]
  Pre-emergence action against VERPE in %: 90%
VERPE [9]
  Post-emergence action against VERPE in %: 80%
AMARE [10]; 320 g/ha, 100% = plants have died, 0% = like control plants
  Pre-emergence action at 320 g/ha against AMARE in %: 100% and 90%
AMARE [10]; 1280 g/ha
  Pre-emergence action against AMARE in %: 100%
Harmful plants
  herbicidal efficacy against harmful plants in the case of pre-emergence treatment: good herbicidal efficacy
POLCO [11]
  Pre-emergence action against POLCO in %: 90%
STEME [12]; 320 g/ha
  Pre-emergence action against STEME in %: 80%
STEME [12]; 1280 g/ha
  Pre-emergence action against STEME in %: 100%
MATIN [13]
  Pre-emergence action against MATIN in %: 100%
ECHCG
  Pre-emergence action at 1280 g/ha against ECHCG in %: 80%
PHBPU [14]
  Post-emergence action against PHBPU in %: 90%
POLCO [15]
  Post-emergence action against POLCO in %: 80%
STEME [16]; 320 g/ha
  Post-emergence action against STEME in %: 80%
STEME [16]; 1280 g/ha
  Post-emergence action against STEME in %: 90%
SETVI
  Pre-emergence action against SETVI in %: 90%
